The record followed here is US10112925B2, “Methods for the preparation of charged crosslinkers” (IMMUNOGEN, INC., priority 2010, dated 2018).

Data set [1] is described as follows: Hygroscopicity of solid forms of compound (V), qualitative comparison. The note with it: solid form; amorphous solid made according to US 20090274713 as comparator. It is filed as physicochemical. The text has this: In one embodiment, the invention is directed to new crystalline forms of the compound of formula (V), e.g., Crystalline Forms 1, 2a, 2b and 3 as described below.

Data set [2] in a line: Gravimetric vapour sorption (GVS) moisture sorption isotherm. It is filed as physicochemical. The note with it: 25° C.; for weight gain, adsorption profile (GVS): between 40% RH and 90% RH; for weight loss, desorption profile (GVS): between 90% RH and 0% RH. As for the experimental part: Sorption isotherms were obtained using a SMS DVS Intrinsic moisture sorption analyser, controlled by DVS Intrinsic Control software v1.0.0.30. The sample temperature was maintained at 25° C. by the instrument controls. The humidity was controlled by mixing streams of dry and wet nitrogen, with a total flow rate of 200 ml/min. The relative humidity was measured by a calibrated Rotronic probe (dynamic range of 1.0-100% RH), located near the sample. The weight change, (mass relaxation) of the sample as a function of % RH was constantly monitored by the microbalance (accuracy ±0.005 mg).
Typically 10 mg of sample was placed in a tared mesh stainless steel basket under ambient conditions. The sample was loaded and unloaded at 40% RH and 25° C. (typical room conditions). A moisture sorption isotherm was performed as outlined below (2 scans giving 1 complete cycle). The standard isotherm was performed at 25° C. at 10% RH intervals over a 0-90% RH range. Data analysis was undertaken in Microsoft Excel using DVS Analysis Suite v6.0.0.7.

As for `O=C(ON1C(=O)CCC1=O)C(CCSSc1ccccn1)S(=O)(=O)O` (stereo not drawn) [Compound of formula (V), N-succinimidyl 4-(2′-pyridyldithio)-2-sulfobutanoate], in data set [1], the hygroscopicity entry is “highly hygroscopic”.
Regarding `O=C(ON1C(=O)CCC1=O)C(CCSSc1ccccn1)S(=O)(=O)O` (stereo not drawn) [Crystalline Form 1, N-succinimidyl 4-(2′-pyridyldithio)-2-sulfobutanoate], the hygroscopicity result in data set [1] is reported as “significantly less hygroscopic than the amorphous solid”. In data set [2], the “weight gain, adsorption profile (GVS)” value worked out at 1.6% and the “weight loss, desorption profile (GVS)” value is recorded as 1.9%.
Turning to `O=C(ON1C(=O)CCC1=O)C(CCSSc1ccccn1)S(=O)(=O)O` (stereo not drawn) [Crystalline Form 2a, N-succinimidyl 4-(2′-pyridyldithio)-2-sulfobutanoate], the hygroscopicity result in data set [1] is “significantly less hygroscopic than the amorphous solid”. Besides, in data set [2], the “weight gain, adsorption profile (GVS)” value was 1.8% and the “weight loss, desorption profile (GVS)” value is recorded as 2.4%.
`O=C(ON1C(=O)CCC1=O)C(CCSSc1ccccn1)S(=O)(=O)O` (stereo not drawn) [Crystalline Form 2b, N-succinimidyl 4-(2′-pyridyldithio)-2-sulfobutanoate]: the hygroscopicity entry in data set [1] is “significantly less hygroscopic than the amorphous solid”.
As to `O=C(ON1C(=O)CCC1=O)C(CCSSc1ccccn1)S(=O)(=O)O` (stereo not drawn) [Crystalline Form 3, N-succinimidyl 4-(2′-pyridyldithio)-2-sulfobutanoate], the hygroscopicity result in data set [1] is “significantly less hygroscopic than the amorphous solid”. In data set [2] (between 0% RH and 40% RH), the “weight gain, second adsorption profile (GVS)” value stood at 0.4%. In data set [2], the “weight gain, adsorption profile (GVS)” value was 25% and the “weight loss, desorption profile (GVS)” value is recorded as 29.4%.
